Like-named read-outs stand apart in the source and are kept apart here.
Columns and labels:
Format in all cases: cell-based
[1] = test system: immortalized normal human bronchial epithelial BEAS-2B cells; assay: IL-17A- or IL-17F-mediated cytokine response by BEAS-2B cells; conditions: 48 h
Experimental: (§1) The virally immortalized, normal human bronchial epithelial cell line BEAS-2B was purchased from ATCC (Manassas, Va.). Primary bronchial epithelial cells isolated from a patient diagnosed with asthma were obtained from Lonza (Allendale, N.J.). Both cells were maintained in complete Bronchial Epithelial Cell Growth Medium (BEGM) (Lonza). Cells were seeded at 1e5 cells/ml and incubated at 37° C. in a humidified atmosphere at 5% CO2 overnight to adhere. Cells were pre-treated with test compounds (10 μM down by ⅕ in a 3- or 4-point serial dilution series) for 1 h at 37° C. in a humidified atmosphere at 5% CO2. DMSO at a final concentration of 0.1% served as the non-inhibited control. Budesonide (Selleck Chemicals, Houston, Tex.), a clinically approved glucocorticoid steroid for the treatment of asthma, was tested as a positive control at 0.25 μM. Cells were stimulated with 50 ng/ml of either human recombinant IL-17A or IL-17F (eBioscience, San Diego, Calif.), for 48 h. Supernatant was then collected and analyzed for cytokine concentrations using the Bio-Plex Pro Human Cytokine 17-Plex Panel (Bio-Rad Laboratories, Hercules, Calif.) according to the manufacturer's instructions. Magnetic beads were measured on the Bio-Plex MAGPIX multiplex reader instrument using the accompanying xPONENT 4.2 acquisition software (Bio-Rad Laboratories). Data were analyzed via the Bio-Plex Manager software v6.1 (Bio-Rad Laboratories). For the primary asthmatic bronchial epithelial cells, five (+IL-17F) to thirteen (+IL-17A) cytokines were in range of detection under the conditions used. […] Select cytokines were analyzed for comparison using the BEAS-2B cell line.

murine Th17 cells = assay: Cytokine response by in vitro-polarized murine Th17 cells stimulated with PMA/ionomycin; conditions: Mus musculus, PMA/ionomycin 20 h
Experimental: Purification of murine CD4+ T cells: To isolate mouse splenocytes, freshly isolated mouse spleens were minced in culture media (RPMI 1640 (Lonza, Allendale, N.J.) containing 10% (v/v) charcoal-dextran filtered, heat inactivated FBS (Omega Scientific, Tarzana, Calif.), 0.05 mM 2-Mercaptoethanol (Sigma-Aldrich, St. Louis, Mo.), and 1×Pen/Strep Amphotericin B (Lonza)), using a sterile razor blade then pushed through 70 and 40 μm cell strainers. Cells were resuspended in ACK Lysing Buffer (Lonza) for 3 minutes at room temperature to lyse the red blood cells. CD4+ T cells were isolated from the mouse splenocytes using the EasySep negative selection mouse CD4+ T cell isolation kit (Stemcell, Vancouver, Canada) according to manufacturer's instructions briefly as follows: Unwanted cells were specifically labeled by incubation with a cocktail of biotinylated antibodies directed against cell surface antigens on mouse cells of hematopoietic origin (CD8a, CD11b, CD11c, CD19, CD45R/B220, CD49b, TCRγ/δ, and TER119). Labeled cells were then magnetically removed using streptavidin-bound magnetic beads, leaving the desired CD4+ T cells.
In vitro mouse Th17 differentiation: Mouse CD4+ T cells isolated as above were polarized into Th17 cells as follows: Tissue culture-treated 100 mm plates (Corning, Corning, N.Y.) were coated with 2 μg/ml purified NA/LE hamster anti-mouse CD3e clone 145-2C11 antibody (BD Biosciences, San Jose, Calif.) overnight at 4° C. Each coated plate was seeded with ˜2-3 e6 mouse CD4+ T cells in polarization media consisting of culture media (RPMI 1640/FBS/2-Mercaptoethanol/Pen/Strep Amphotericin B) supplemented with: recombinant mouse IL-6 (50 ng/ml), […] (50 ng/ml), IL-23 (50 ng/ml)(R&D Systems, Minneapolis, Minn.), recombinant human TGF1β (5 ng/ml) (Cell Signaling Technology, Danvers, Mass.), anti-CD28 clone 37.51 (10 μg/ml)(BD Biosciences, San Jose, Calif.), anti-IL-2 clone JES6-1A12 (1 μg/ml), anti-IL-4 clone 11B11 (10 μg/ml), and anti-IFNγ clone XMG1.2 (10 μg/ml). All recombinant mouse cytokines and anti-mouse neutralizing antibodies were purchased from eBioscience (San Diego, Calif.) unless otherwise specified. Cells were incubated in the above Polarization media for 3 d at 37° C. in a humidified atmosphere at 5% CO2. After 3 d, cells were re-polarized as above, except for the following cytokine and neutralizing antibody concentration changes: recombinant mouse IL-6 (40 ng/ml), recombinant human TGFβ (1 ng/ml), anti-CD28 clone 37.51 (5 μg/ml), anti-IL-2 clone JES6-1A12 (0.5 μg/ml), anti-IL-4 clone 11B11 (5 μg/ml), and anti-IFNγ clone XMG1.2 (5 μg/ml). Cells were maintained under the above conditions for an additional 3 d at 37° C. in humidified atmosphere at 5% CO2 for a total of 6 days of polarization.
Inhibition of cytokine response by in vitro-polarized murine Th17 cells stimulated with PMA/ionomycin: Murine Th17 cells, polarized as described above, were seeded at 2e6 cells/ml in culture media. Cells were pre-treated with test compounds (10 μM down by ⅕ in a 4-point serial dilution series) for 1 h at 37° C. in a humidified atmosphere at 5% CO2. Cells were then stimulated with 50 ng/ml phorbol 12-myristate 13-acetate (PMA)(Sigma-Aldrich, St. Louis, Mo.)+1 μg/ml ionomycin (Life Technologies, Grand Island, N.Y.) for 20 h at 37° C. in a humidified atmosphere at 5% CO2. Supernatant was collected and analyzed using Bio-Plex Pro Mouse Cytokine Th17 Panel A 6-Plex and the Bio-Plex Pro Mouse Cytokine Th17 Panel B 8-Plex (Bio-Rad Laboratories, Hercules, Calif.) as per manufacturer's protocols. Magnetic beads were read on the Bio-Plex MAGPIX multiplex reader instrument using the accompanying xPONENT 4.2 acquisition software (Bio-Rad Laboratories, Hercules, Calif.). Data were analyzed via the Bio-Plex Manager software v6.1 (Bio-Rad Laboratories).

[2] = test system: primary asthmatic human bronchial epithelial cells; assay: IL-17A- or IL-17F-mediated cytokine response by primary asthmatic human bronchial epithelial cells; conditions: Epithelial cell, 48 h, 48 h
Experimental: as §1
BLQ: cytokine levels were below limits of quantitation.

[3] = +50 ng/ml IL-17A, read-out: EC50 values (μM), IL-6
[4] = +50 ng/ml IL-17A, read-out: EC50 values (μM), IL-8
[5] = +50 ng/ml IL-17F, read-out: EC50 values (μM), IL-6
[6] = +50 ng/ml IL-17F, read-out: EC50 values (μM), IL-8
[7] = read-out: EC50 (nM) of cytokine reduction, IFNγ
[8] = read-out: EC50 (nM) of cytokine reduction, IL-6
[9] = read-out: EC50 (nM) of cytokine reduction, IL-10
[10] = read-out: EC50 (nM) of cytokine reduction, IL-17A
[11] = read-out: EC50 (nM) of cytokine reduction, IL-21
[12] = read-out: EC50 (nM) of cytokine reduction, IL-22
[13] = read-out: EC50 (nM) of cytokine reduction, IL-23p19
[14] = +50 ng/ml IL-17A, read-out: EC50 values (μM), G-CSF
[15] = +50 ng/ml IL-17A, read-out: EC50 values (μM), GM-CSF
[16] = +50 ng/ml IL-17A, read-out: EC50 values (μM), IFN-γ
[17] = +50 ng/ml IL-17A, read-out: EC50 values (μM), IL-1β
[18] = +50 ng/ml IL-17A, read-out: EC50 values (μM), IL-2
[19] = +50 ng/ml IL-17A, read-out: EC50 values (μM), MCP-1
[20] = +50 ng/ml IL-17F, read-out: EC50 values (μM), G-CSF
[21] = +50 ng/ml IL-17F, read-out: EC50 values (μM), IFN-γ
[22] = +50 ng/ml IL-17F, read-out: EC50 values (μM), IL-1β

SMILES | EC50 [1, 3] | EC50 [1, 4] | EC50 [1, 5] | EC50 [1, 6] | EC50 (murine Th17 cells; [7]) | EC50 (murine Th17 cells; [8]) | EC50 (murine Th17 cells; [9]) | EC50 (murine Th17 cells; [10]) | EC50 (murine Th17 cells; [11]) | EC50 (murine Th17 cells; [12]) | EC50 (murine Th17 cells; [13]) | EC50 [2, 14] | EC50 [2, 15] | EC50 [2, 16] | EC50 [2, 17] | EC50 [2, 18] | EC50 [2, 3] | EC50 [2, 4] | EC50 [2, 19] | EC50 [2, 20] | other results
CCOc1cc(C(=O)N2CCC(N3CCCC3)CC2)ccc1Nc1cc2c(cn1)N(C)C(=O)c1ccccc1N2C [Compound 46, 3-(2-Ethoxy-4-(4-(pyrrolidin-1-yl)piperidine-1-carbonyl)phenylamino)-5,11-dimethyl-5H-benzo[e]pyrido[3,4-b][1,4]diazepin-10(11H)-one] | 0.51 µM | 0.4 µM | 0.38 µM | 0.32 µM | 4270 nM | 1740 nM | 577 nM | > 10000 nM | 4850 nM | 2630 nM | 480 nM | – | – | – | – | – | – | – | – | – | –
CCOc1cc(C(=O)NCC2CC2)ccc1Nc1cc2c(cn1)N(C)C(=O)c1ccccc1N2C [Compound 57] | – | – | – | – | 6930 nM | 2920 nM | 2150 nM | > 10000 nM | 3990 nM | 2120 nM | 840 nM | – | – | – | – | – | – | – | – | – | –
CCOc1cc(C(=O)N2CCC(N3CCN(C)CC3)CC2)ccc1Nc1cc2c(cn1)N(C)C(=O)c1ccccc1N2C [Compound 61] | 0.68 µM | 0.42 µM | 0.42 µM | 0.51 µM | > 10000 nM | 1600 nM | 1090 nM | > 10000 nM | 4240 nM | 2980 nM | 800 nM | 1.66 µM | 3.38 µM | > 10 µM | 1.26 µM | 10.5 µM | 0.5 µM | 0.51 µM | 6.25 µM | 0.91 µM | EC50 [2, 21]: 0.6 µM; EC50 [2, 22]: 0.79 µM; EC50 [2, 5]: 0.38 µM; EC50 [2, 6]: 0.52 µM
CCOc1cc(C(=O)N2CCNCC2)ccc1Nc1cc2c(cn1)N(C)C(=O)c1ccccc1N2C [Compound 62] | – | – | – | – | 8540 nM | 2480 nM | 1820 nM | > 10000 nM | 4980 nM | 5010 nM | 1340 nM | – | – | – | – | – | – | – | – | – | –
CCOc1cc(C(=O)N2CCC(N3CCN(C)CC3)CC2)ccc1Nc1cc2c(cn1)N(C)C(=O)c1occc1N2C [Compound 65] | – | – | – | – | > 10000 nM | 2380 nM | 979 nM | > 10000 nM | 8280 nM | 5080 nM | 940 nM | 2.68 µM | 4.06 µM | > 10 µM | 1.57 µM | > 10 µM | 0.56 µM | 0.63 µM | > 10 µM | 1.77 µM | EC50 [2, 21]: 1.98 µM; EC50 [2, 22]: 1.57 µM; EC50 [2, 5]: 0.59 µM; EC50 [2, 6]: 1.27 µM
CCOc1cc(C(=O)N2CC[C@@H](N(C)C)C2)ccc1Nc1cc2c(cn1)N(C)C(=O)c1ccccc1N2C [Compound 115] | 0.21 µM | 0.42 µM | 0.14 µM | 0.13 µM | 1770 nM | 1170 nM | 373 nM | 4980 nM | 2110 nM | 880 nM | 360 nM | 0.66 µM | 1.39 µM | > 10 µM | 0.95 µM | 5.31 µM | 0.16 µM | 0.15 µM | 6.1 µM | 0.21 µM | EC50 [2, 21]: 0.34 µM; EC50 [2, 22]: 0.38 µM; EC50 [2, 5]: 0.34 µM; EC50 [2, 6]: 0.28 µM

From patent publication US20170008888A1 (KYORIN PHARMACEUTICAL CO., LTD., priority 2014, published 2017)
